Where two headings read alike, the source gives them in different places.
System: test plant species
Experiment: Post-emergent herbicidal activity test (greenhouse, foliar spray, visual growth reduction)
Format: in vivo
Settings: post-emergence, 336 h, 140 g ai/ha
How it was run: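 Greenhouse plants at first–second true leaf stage sprayed overhead at 187 L/ha with compound in acetone/water/isopropanol/DMSO/crop oil/X-77 carrier; controls received solvent blank. Injury rated visually after 14 d on a 0–100% scale versus untreated and control plants, converted to growth reduction.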

[1] = ECHCG: barnyardgrass (Echinochloa crus-galli), 14 days after application, read-out: Visual Growth Reduction (%) 14 Days After Application, ECHCG
[2] = IPOHE: ivy-leaf morning glory (Ipomoea hederacea), 14 days after application, read-out: Visual Growth Reduction (%) 14 Days After Application, IPOHE
[3] = KCHSC: kochia (Bassia scoparia), 14 days after application, read-out: Visual Growth Reduction (%) 14 Days After Application, KCHSC
[4] = ORYSA: rice (Oryza sativa), 14 days after application, read-out: Visual Growth Reduction (%) 14 Days After Application, ORYSA
[5] = SETFA: giant foxtail (Setaria faberi), 14 days after application, read-out: Visual Growth Reduction (%) 14 Days After Application, SETFA
[6] = SORVU: grain sorghum (Sorghum vulgare), 14 days after application, read-out: Visual Growth Reduction (%) 14 Days After Application, SORVU
[7] = STEME: common chickweed (Stellaria media), 14 days after application, read-out: Visual Growth Reduction (%) 14 Days After Application, STEME
[8] = TRZAS: wheat, spring (Triticum aestivum), 14 days after application, read-out: Visual Growth Reduction (%) 14 Days After Application, TRZAS
[9] = blackgrass (Alopecurus myosuroides), 14 Days After Application, read-out: Visual Growth Reduction (%) ALOMY
[10] = canada thistle (Cirsium arvense), 14 Days After Application, read-out: Visual Growth Reduction (%) CIRAR
[11] = crabgrass (Digitaria sanguinalis), 14 Days After Application, read-out: Visual Growth Reduction (%) DIGSA
[12] = lambsquarters (Chenopodium album), 14 Days After Application, read-out: Visual Growth Reduction (%) CHEAL
[13] = redroot pigweed (Amaranthus retroflexus), 14 Days After Application, read-out: Visual Growth Reduction (%) AMARE
[14] = wild oat (Avena fatua), 14 Days After Application, read-out: Visual Growth Reduction (%) AVEFA
[15] = yellow nutsedge (Cyperus esculentus), 14 Days After Application, read-out: Visual Growth Reduction (%) CYPES

| Compound | pest or weed control at 140 g/ha [1] [%] | pest or weed control at 140 g/ha [2] [%] | pest or weed control at 140 g/ha [3] [%] | pest or weed control at 140 g/ha [4] [%] | pest or weed control at 140 g/ha [5] [%] | pest or weed control at 140 g/ha [6] [%] | pest or weed control at 140 g/ha [7] [%] | pest or weed control at 140 g/ha [8] [%] | pest or weed control at 140 g/ha [9] [%] | pest or weed control at 140 g/ha [10] [%] | pest or weed control at 140 g/ha [11] [%] | pest or weed control at 140 g/ha [12] [%] | pest or weed control at 140 g/ha [13] [%] | pest or weed control at 140 g/ha [14] [%] | pest or weed control at 140 g/ha [15] [%] |
| --- | --- | --- | --- | --- | --- | --- | --- | --- | --- | --- | --- | --- | --- | --- | --- |
| COC(=O)c1nc(-c2cc(F)c(Cl)c(OC)c2)ccc1Cl [F278, Methyl 3-chloro-6-(4-chloro-3-fluoro-5-methoxyphenyl) picolinate] | 0 to 29 | 0 to 29 | 0 to 29 | 0 to 29 | 0 to 29 | 0 to 29 | 0 to 29 | 0 to 29 | 0 to 29 | 0 to 29 | 0 to 29 | 0 to 29 | 0 to 29 | 0 to 29 | 0 to 29 |
| CCCCOc1c(Cl)ccc(-c2ccc(Cl)c(C(=O)OC)n2)c1F [F279, Methyl 6-(3-butoxy-4-chloro-2-fluorophenyl)-3-chloropicolinate] | 0 to 29 | 0 to 29 | 0 to 29 | 0 to 29 | 0 to 29 | 0 to 29 | 0 to 29 | 0 to 29 | 0 to 29 | 0 to 29 | 0 to 29 | 0 to 29 | 0 to 29 | 0 to 29 | 0 to 29 |
| CCCCOC(=O)c1nc(-c2ccc(Cl)c(OC)c2F)ccc1Cl [F280, Butyl 3-chloro-6-(4-chloro-2-fluoro-3-methoxyphenyl) picolinate] | 0 to 29 | 30 to 44 | 60 to 74 | 0 to 29 | 0 to 29 | 0 to 29 | 0 to 29 | 0 to 29 | 0 to 29 | 30 to 44 | 0 to 29 | 85 to 94 | 30 to 44 | 0 to 29 | 60 to 74 |
| COC(=O)c1nc(-c2ccc(Cl)c(C(F)F)c2Cl)ccc1Cl [F281, Methyl 3-chloro-6-(2,4-dichloro-3-(difluoromethyl)phenyl)picolinate] | 0 to 29 | 85 to 94 | 0 to 29 | 0 to 29 | 30 to 44 | 85 to 94 | 0 to 29 | 0 to 29 | 0 to 29 | 0 to 29 | 0 to 29 | 85 to 94 | 75 to 84 | 0 to 29 | 0 to 29 |
| COC(=O)c1nc(-c2ccc(Cl)c(C(C)F)c2Cl)ccc1Cl (stereo not drawn) [F282, Methyl 3-chloro-6-(2,4-dichloro-3-(1-fluoroethyl)phenyl) picolinate] | 0 to 29 | 45 to 59 | 0 to 29 | 0 to 29 | 0 to 29 | 0 to 29 | 0 to 29 | 0 to 29 | 0 to 29 | 60 to 74 | 0 to 29 | 85 to 94 | 45 to 59 | 0 to 29 | 0 to 29 |
| CCCCOC(=O)c1nc(-c2ccc(Br)c(OC)c2F)ccc1Cl [F283, Butyl 6-(4-bromo-2-fluoro-3-methoxyphenyl)-3-chloropicolinate] | 0 to 29 | 0 to 29 | 75 to 84 | 0 to 29 | 0 to 29 | 0 to 29 | 0 to 29 | 0 to 29 | 0 to 29 | 85 to 94 | 0 to 29 | 85 to 94 | 30 to 44 | 0 to 29 | 30 to 44 |
| COC(=O)c1nc(-c2ccc(Cl)nc2Cl)ccc1Cl [F284, Methyl 2′,5,6′-trichloro-[2,3′-bipyridine]-6-carboxylate] | 0 to 29 | 60 to 74 | 0 to 29 | 0 to 29 | 0 to 29 | 85 to 94 | 0 to 29 | 0 to 29 | 0 to 29 | 30 to 44 | 0 to 29 | 0 to 29 | 0 to 29 | 0 to 29 | 0 to 29 |
| CCC(F)c1c(Cl)ccc(-c2ccc(Cl)c(C(=O)OC)n2)c1F (stereo not drawn) [F285, Methyl 3-chloro-6-(4-chloro-2-fluoro-3-(1-fluoropropyl)phenyl) picolinate] | 0 to 29 | 0 to 29 | 0 to 29 | 0 to 29 | 0 to 29 | 0 to 29 | 0 to 29 | 0 to 29 | 0 to 29 | 30 to 44 | 0 to 29 | 0 to 29 | 0 to 29 | 0 to 29 | 0 to 29 |
| CCCOC(=O)c1nc(-c2ccc(Cl)c(OC)c2F)ccc1Cl [F286, Propyl 3-chloro-6-(4-chloro-2-fluoro-3-methoxyphenyl) picolinate] | 0 to 29 | 60 to 74 | 60 to 74 | 0 to 29 | 0 to 29 | 0 to 29 | 0 to 29 | 0 to 29 | 0 to 29 | 60 to 74 | 0 to 29 | 75 to 84 | 0 to 29 | 0 to 29 | 0 to 29 |
| COC(=O)c1nc(-c2ccc(C3CC3)c(F)c2)ccc1Cl [F287, Methyl 3-chloro-6-(4-cyclopropyl-3-fluorophenyl) picolinate] | 0 to 29 | 60 to 74 | 0 to 29 | 0 to 29 | 0 to 29 | 0 to 29 | 0 to 29 | 0 to 29 | 0 to 29 | 0 to 29 | 0 to 29 | 0 to 29 | 0 to 29 | 0 to 29 | 0 to 29 |
| COC(=O)c1nc(-c2ccc(OS(C)(=O)=O)cc2Cl)ccc1Cl [F288, methyl 3-chloro-6-(2-chloro-4-((methylsulfonyl)oxy)phenyl)picolinate] | 60 to 74 | 95 to 100 | 75 to 84 | 0 to 29 | 60 to 74 | 85 to 94 | 0 to 29 | 30 to 44 | 0 to 29 | 95 to 100 | 75 to 84 | 85 to 94 | 85 to 94 | 0 to 29 | 0 to 29 |

Reference: patent US20230017045A1, “PYRIDINE AND PYRIMIDINE CARBOXYLATE HERBICIDES AND METHODS OF USE THEREOF” (Dow AgroSciences LLC, priority 2017, published 2023)
